The values below come from patent US7087626B2, “Pyrrole derivatives as pharmaceutical agents” (Eli Lilly and Company, priority 2001, dated 2006).

The structures appear in SMILES notation.

The target of one assay is T1, KDR (VEGFR2) (Homo sapiens, UniProt P35968).
T1 construct: The 6×-HIS tagged cytoplasmic kinase domain of KDR was expressed and purified from Sf9 insect cell lysates; 6xHis; made in house; host or cells: Sf9 insect cells
Kind of assay: KDR (VEGFR2) in vitro kinase assay. In kind it is biochemical. As to conditions: 1 ug enzyme, 1 uM ATP, 30° C., 20 min. The procedure:
KDR (VEGFR2) Purification and in vitro Kinase Assay
The 6×-HIS tagged cytoplasmic kinase domain of KDR was expressed and purified from Sf9 insect cell lysates as described above with the following modification:
1× kinase buffer for chromatography washes and elution was changed to 100 mM HEPES pH 7.5, 10 mM MnCl2 and 5 mM β-mercaptoethanol. The resulting material was approximately 40% pure and had tyrosine autophosphorylation activity.
Reactions: 1 ug enzyme in 1×KB, compound dilution series in 1×KB/16% DMSO (20 uM to 1 nM final concentration with 4% DMSO final concentration), reactions were started by adding ATP mix (1 uM ATP/1 uCi ^33P-[…]-ATP final concentrations) in 1×KB.
Reactions were incubated at 30° C. for 20 min. The reactions were stopped and quantitated using standard TCA/BSA precipitation onto Millipore FC glass fiber filter plates and by liquid scintillation counting on a MicroBeta JET.

For a further assay, the target named is T2, p38α/SAPK2α (Homo sapiens, UniProt Q16539).
T2 construct: purchased Upstate Biotechnology 14-251
T2 sequence (Q16539 whole entry): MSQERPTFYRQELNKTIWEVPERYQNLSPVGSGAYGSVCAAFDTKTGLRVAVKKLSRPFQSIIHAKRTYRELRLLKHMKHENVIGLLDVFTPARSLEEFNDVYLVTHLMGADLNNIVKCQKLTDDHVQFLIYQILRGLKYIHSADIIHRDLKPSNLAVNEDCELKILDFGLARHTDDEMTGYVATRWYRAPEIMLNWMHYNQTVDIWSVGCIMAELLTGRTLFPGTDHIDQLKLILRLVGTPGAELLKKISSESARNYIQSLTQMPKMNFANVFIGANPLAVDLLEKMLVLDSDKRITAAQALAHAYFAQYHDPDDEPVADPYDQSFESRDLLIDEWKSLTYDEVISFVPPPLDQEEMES
Kind of assay: p38α in vitro kinase assay. Type of assay: biochemical. The conditions noted are these: 5 nM p38α, 62.5 uM EGFR substrate, 100 uM ATP, 30° C., 40 min. The procedure:
p38α in vitro Kinase Assay
Active p38α/SAPK2α was purchased from Upstate Biotechnology (cat#14-251). A known p38α substrate from EGFR was used in the assay (Young, et al. (1997) JBC 272: 12116-12121).
Reactions were performed in 1× kinase buffer (25 mM Tris-HCl pH 7.5, 5 mM β-glycerophosphate, 2 mM DTT, 0.1 mM Na3VO4, 10 mM MgCl2, 1 uM Microcystin) with 5 nM p38α, 62.5 uM substrate, 40 uM to 0.2 nM compound dilution series in 1×KB/16% DMSO (final 4% DMSO concentration). Reactions were started by addition of 100 uM ATP (final concentration) with 1 uCi ^33P-γ-ATP in 1×KB and incubated at 30° C. for 40 min. Reactions were stopped with H3PO4 and quantitated on Millipore PH phosphocellulose filter plates by liquid scintillation counting on a MicroBeta JET.

T1 sequence (P35968 834-1162 limits assumed, species assumed): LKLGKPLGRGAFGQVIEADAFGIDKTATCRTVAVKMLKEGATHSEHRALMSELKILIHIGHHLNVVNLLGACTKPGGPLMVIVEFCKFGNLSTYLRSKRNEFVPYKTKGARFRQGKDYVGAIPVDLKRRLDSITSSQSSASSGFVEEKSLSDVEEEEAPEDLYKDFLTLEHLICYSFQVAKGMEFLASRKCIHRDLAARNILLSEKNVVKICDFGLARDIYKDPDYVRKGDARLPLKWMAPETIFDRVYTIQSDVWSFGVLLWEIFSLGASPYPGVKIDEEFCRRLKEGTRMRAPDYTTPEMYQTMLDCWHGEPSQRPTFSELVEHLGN

What is called IC50 is the midpoint of a concentration-inhibition curve. Turning to `COC(=O)c1ccc2c(-c3c(-c4ccccn4)nn4c3CCC4)ccnc2c1` [4-[2-Pyridin-2-yl-5,6-dihydro-4H-pyrrolo[1,2-b]pyrazol-3-yl]-quinoline-7-carboxylic acid methyl ester], the IC50 against KDR (VEGFR2) and against p38α/SAPK2α was less than 20 µM each time.
